Target: ROCK2 (Homo sapiens, UniProt O75116)
Test: ROCK kinase inhibition assay, FITC peptide substrate, LABCHIP 3000 readout
Assay type: biochemical
Conditions: 5 μM ATP, 1.5 μM peptide substrate
Procedure: Compounds were dissolved in DMSO so that the final concentration of DMSO was <2%, and the reaction was initiated with Rho kinase variants. After incubation, the reaction was terminated by the addition of EDTA and the phosphorylated and non-phosphorylated peptides separated using a LABCHIP® 3000 Reader (Caliper Life Sciences). […] Compounds were tested in dose-response format, and the inhibition of kinase activity was calculated at each concentration of compound.

ROCK2, sequence (O75116 whole entry, species assumed): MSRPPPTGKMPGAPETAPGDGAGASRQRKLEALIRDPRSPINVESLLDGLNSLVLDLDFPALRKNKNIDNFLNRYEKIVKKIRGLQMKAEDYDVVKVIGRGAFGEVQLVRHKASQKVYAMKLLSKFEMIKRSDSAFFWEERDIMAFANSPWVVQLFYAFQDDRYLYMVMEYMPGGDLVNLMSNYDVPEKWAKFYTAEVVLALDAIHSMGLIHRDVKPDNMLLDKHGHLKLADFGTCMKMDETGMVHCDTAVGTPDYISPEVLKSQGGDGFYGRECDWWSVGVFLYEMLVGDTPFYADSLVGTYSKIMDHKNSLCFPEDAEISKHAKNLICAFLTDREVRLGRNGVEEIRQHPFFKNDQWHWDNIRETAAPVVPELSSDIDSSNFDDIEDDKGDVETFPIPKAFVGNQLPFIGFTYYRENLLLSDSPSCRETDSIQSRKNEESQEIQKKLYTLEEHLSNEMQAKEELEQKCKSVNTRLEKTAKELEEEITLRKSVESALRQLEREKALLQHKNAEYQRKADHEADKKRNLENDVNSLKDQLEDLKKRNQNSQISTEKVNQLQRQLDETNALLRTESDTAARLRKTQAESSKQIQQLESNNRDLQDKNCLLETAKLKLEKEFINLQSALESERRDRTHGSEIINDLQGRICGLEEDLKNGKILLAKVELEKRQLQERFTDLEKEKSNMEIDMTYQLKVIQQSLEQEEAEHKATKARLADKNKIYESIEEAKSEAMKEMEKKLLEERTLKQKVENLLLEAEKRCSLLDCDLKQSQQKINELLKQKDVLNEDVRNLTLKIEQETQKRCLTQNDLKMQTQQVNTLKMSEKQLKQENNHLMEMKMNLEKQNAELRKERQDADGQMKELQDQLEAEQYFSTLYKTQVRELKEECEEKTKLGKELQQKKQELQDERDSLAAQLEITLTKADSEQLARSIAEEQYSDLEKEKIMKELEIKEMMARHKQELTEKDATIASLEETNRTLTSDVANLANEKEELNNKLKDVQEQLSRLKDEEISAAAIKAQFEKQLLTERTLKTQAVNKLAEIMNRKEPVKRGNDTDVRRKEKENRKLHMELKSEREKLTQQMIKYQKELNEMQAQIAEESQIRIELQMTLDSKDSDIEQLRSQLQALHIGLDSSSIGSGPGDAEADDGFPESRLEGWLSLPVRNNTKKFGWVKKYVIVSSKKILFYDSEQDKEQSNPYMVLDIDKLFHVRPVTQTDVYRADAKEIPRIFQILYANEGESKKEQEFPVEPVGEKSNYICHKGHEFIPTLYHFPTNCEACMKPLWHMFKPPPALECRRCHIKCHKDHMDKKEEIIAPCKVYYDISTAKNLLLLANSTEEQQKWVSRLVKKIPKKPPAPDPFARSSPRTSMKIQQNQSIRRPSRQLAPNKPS

Structure (SMILES) | IC50
COc1cc(N2CCC3(CCN(C(=O)c4ccc(N5CCN(C)CC5)cc4Cl)CC3)C2=O)ccc1-c1cn[nH]c1 [Example 27, 8-[2-chloro-4-(4-methylpiperazin-1-yl)benzoyl]-2-[3-methoxy-4-(1H-pyrazol-4-yl)phenyl]-2,8-diazaspiro[4.5]decan-1-one] | 0.8 nM
COc1cc(F)c(C(=O)N2CCC3(CC2)CCN(c2ccc(-c4cn[nH]c4)c(OC)c2)C3=O)c(F)c1 [Example 28, 8-(2,6-difluoro-4-methoxybenzoyl)-2-[3-methoxy-4-(1H-pyrazol-4-yl)phenyl]-2,8-diazaspiro[4.5]decan-1-one] | 5 nM
COc1cc(OC)c(C(=O)N2CCC3(CC2)CCN(c2ccc(-c4cn[nH]c4)c(OC)c2)C3=O)c(OC)c1 [Example 29, 2-[3-methoxy-4-(1H-pyrazol-4-yl)phenyl]-8-(2,4,6-trimethoxybenzoyl)-2,8-diazaspiro[4.5]decan-1-one] | 336 nM
COc1cc(N2CCC3(CCN(C(=O)c4c(C)cc(C(N)=O)cc4C)CC3)C2=O)ccc1-c1cn[nH]c1 [Example 30, 4-{2-[3-methoxy-4-(1H-pyrazol-4-yl)phenyl]-1-oxo-2,8-diazaspiro[4.5]decane-8-carbonyl}-3,5-dimethylbenzamide] | 130 nM
CN1CCN(c2ccc(C(=O)N3CCC4(CC3)CCN(c3ccc(-c5cn[nH]c5)cc3)C4=O)cc2)CC1 [Example 31, 8-[4-(4-methylpiperazin-1-yl)benzoyl]-2-[4-(1H-pyrazol-4-yl)phenyl]-2,8-diazaspiro[4.5]decan-1-one] | 0.7 nM
CN1CCN(c2ccc(C(=O)N3CCC4(CC3)CCN(c3ccc(-c5ccnc(O)c5)cc3)C4=O)cc2)CC1 [Example 32, 2-[4-(2-hydroxypyridin-4-yl)phenyl]-8-[4-(4-methylpiperazin-1-yl)benzoyl]-2,8-diazaspiro[4.5]decan-1-one] | 54 nM
CN1CCN(c2ccc(C(=O)N3CCC4(CC3)CCN(c3ccc(-c5ccncc5F)cc3)C4=O)cc2)CC1 [Example 33, 2-[4-(3-fluoropyridin-4-yl)phenyl]-8-[4-(4-methylpiperazin-1-yl)benzoyl]-2,8-diazaspiro[4.5]decan-1-one] | 1.3 nM
CN1CCN(c2ccc(C(=O)N3CCC4(CC3)CCN(c3ccc(-c5ccc6cn[nH]c6c5)cc3)C4=O)cc2)CC1 [Example 34, 2-[4-(1H-indazol-6-yl)phenyl]-8-[4-(4-methylpiperazin-1-yl)benzoyl]-2,8-diazaspiro[4.5]decan-1-one] | 106 nM
CN1CCN(c2ccc(C(=O)N3CCC4(CC3)CCN(c3ccc(-c5ccnc6[nH]ccc56)cc3)C4=O)cc2)CC1 [Example 35, 8-[4-(4-methylpiperazin-1-yl)benzoyl]-2-(4-{1H-pyrrolo[2,3-b]pyridin-4-yl}phenyl)-2,8-diazaspiro[4.5]decan-1-one] | 0.3 nM
CN1CCN(c2ccc(C(=O)N3CCC4(CC3)CCN(c3ccc(-c5ccnc(N)c5)cc3)C4=O)cc2)CC1 [Example 36, 2-[4-(2-aminopyridin-4-yl)phenyl]-8-[4-(4-methylpiperazin-1-yl)benzoyl]-2,8-diazaspiro[4.5]decan-1-one] | 2 nM
CN1CCN(c2ccc(C(=O)N3CCC4(CC3)CCN(c3ccc(-c5ccc6[nH]ncc6c5)cc3)C4=O)cc2)CC1 [Example 37, 2-[4-(1H-indazol-5-yl)phenyl]-8-[4-(4-methylpiperazin-1-yl)benzoyl]-2,8-diazaspiro[4.5]decan-1-one] | 0.5 nM
CN1CCN(c2ccc(C(=O)N3CCC4(CC3)CCN(c3ccc(-c5ccc6nn[nH]c6c5)cc3)C4=O)cc2)CC1 [Example 38, 2-[4-(1H-1,2,3-benzotriazol-6-yl)phenyl]-8-[4-(4-methylpiperazin-1-yl)benzoyl]-2,8-diazaspiro[4.5]decan-1-one] | 116 nM
COc1ccc(C(=O)N2CCC3(CC2)CCN(c2ccc(-c4cn[nH]c4)c(OC)n2)C3=O)cc1 [Example 39, 2-[6-methoxy-5-(1H-pyrazol-4-yl)pyridin-2-yl]-8-(4-methoxybenzoyl)-2,8-diazaspiro[4.5]decan-1-one] | 4 nM
COc1ccc(C(=O)N2CCC3(CC2)CN(c2ccc(-c4cn[nH]c4)cc2)C3=O)cc1 [Example 40, 7-(4-methoxybenzoyl)-2-[4-(1H-pyrazol-4-yl)phenyl]-2,7-diazaspiro[3.5]nonan-1-one] | 132 nM
COc1cccc(C(=O)N2CCC3(CC2)CN(c2ccc(-c4cn[nH]c4)cc2)C3=O)c1 [Example 41, 7-(3-methoxybenzoyl)-2-[4-(1H-pyrazol-4-yl)phenyl]-2,7-diazaspiro[3.5]nonan-1-one] | 285 nM
O=C(c1ccccc1)N1CCC2(CCN(c3ccc(-c4cn[nH]c4)cc3)C2=O)C1 (centres unmarked) [Example 42, 7-benzoyl-2-[4-(1H-pyrazol-4-yl)phenyl]-2,7-diazaspiro[4.4]nonan-1-one] | 1220 nM
COc1ccccc1C(=O)N1CCC2(CCN(c3ccc(-c4cn[nH]c4)cc3)C2=O)C1 (centres unmarked) [Example 43, 7-(2-methoxybenzoyl)-2-[4-(1H-pyrazol-4-yl)phenyl]-2,7-diazaspiro[4.4]nonan-1-one] | 2560 nM
COc1cccc(C(=O)N2CCC3(CCN(c4ccc(-c5cn[nH]c5)cc4)C3=O)C2)c1 (centres unmarked) [Example 44, 7-(3-methoxybenzoyl)-2-[4-(1H-pyrazol-4-yl)phenyl]-2,7-diazaspiro[4.4]nonan-1-one] | 444 nM
COc1ccc(C(=O)N2CCC3(CCN(c4ccc(-c5cn[nH]c5)cc4)C3=O)C2)cc1 (centres unmarked) [Example 45, 7-(4-methoxybenzoyl)-2-[4-(1H-pyrazol-4-yl)phenyl]-2,7-diazaspiro[4.4]nonan-1-one] | 180 nM
O=C1N(c2ccc(-c3cn[nH]c3)cc2)CCC12CCN(S(=O)(=O)c1ccccc1)C2 (centres unmarked) [Example 46, 7-(benzenesulfonyl)-2-[4-(1H-pyrazol-4-yl)phenyl]-2,7-diazaspiro[4.4]nonan-1-one] | 750 nM
COc1ccc(C(=O)N2CCC3(CC2)CC(=O)N(c2ccc(-c4cn[nH]c4)c(OC)c2)C3)cc1 [Example 47, 2-[3-methoxy-4-(1H-pyrazol-4-yl)phenyl]-8-(4-methoxybenzoyl)-2,8-diazaspiro[4.5]decan-3-one] | 306 nM
CN1CCN(c2ccc(C(=O)N3CCC4(CC3)CCN(c3cccc(-c5cn[nH]c5)c3)C4=O)cc2)CC1 [Example 48, 8-[4-(4-methylpiperazin-1-yl)benzoyl]-2-[3-(1H-pyrazol-4-yl)phenyl]-2,8-diazaspiro[4.5]decan-1-one] | 1100 nM
CN1CCN(c2ccc(C(=O)N3CCC4(CC3)CCN(c3cccc(-c5ccc6cn[nH]c6c5)c3)C4=O)cc2)CC1 [Example 49, 2-[3-(1H-indazol-6-yl)phenyl]-8-[4-(4-methylpiperazin-1-yl)benzoyl]-2,8-diazaspiro[4.5]decan-1-one] | 6.8 nM
COc1ccc(C(=O)N2CCC3(CC2)CCN(c2cccc(-c4ccc5cn[nH]c5c4)c2)C3=O)cc1 [Example 50] | 1680 nM

Now from value to molecule:

IC50 | Structure (SMILES)
14 nM | CN1CCN(c2ccc(C(=O)N3CCC4(CC3)CCN(c3cccc(-c5ccc6[nH]ncc6c5)c3)C4=O)cc2)CC1 [Example 51, 2-[3-(1H-indazol-5-yl)phenyl]-8-[4-(4-methylpiperazin-1-yl)benzoyl]-2,8-diazaspiro[4.5]decan-1-one]
1870 nM | COc1ccc(C(=O)N2CCC3(CC2)CCN(c2cccc(-c4ccc5[nH]ncc5c4)c2)C3=O)cc1 [Example 52, 2-[3-(1H-indazol-5-yl)phenyl]-8-(4-methoxybenzoyl)-2,8-diazaspiro[4.5]decan-1-one]
16.5 nM | COc1cc(N2CCC3(CCN(C(=O)c4ccc(-c5cc[nH]n5)cc4)CC3)C2=O)ccc1-c1cn[nH]c1 [Example 53, 2-[3-methoxy-4-(1H-pyrazol-4-yl)phenyl]-8-[4-(1H-pyrazol-3-yl)benzoyl]-2,8-diazaspiro[4.5]decan-1-one]
2.1 nM | COc1cc(N2CCC3(CCN(C(=O)c4ccc(N5CCCC5)cn4)CC3)C2=O)ccc1-c1cn[nH]c1 [Example 54, 2-[3-methoxy-4-(1H-pyrazol-4-yl)phenyl]-8-[5-(pyrrolidin-1-yl)pyridine-2-carbonyl]-2,8-diazaspiro[4.5]decan-1-one]
96 nM | COc1cc(N2CCC3(CCN(C(=O)c4ccc(S(N)(=O)=O)cc4)CC3)C2=O)ccc1-c1cn[nH]c1 [Example 55, 4-{2-[3-methoxy-4-(1H-pyrazol-4-yl)phenyl]-1-oxo-2,8-diazaspiro[4.5]decane-8-carbonyl}benzene-1-sulfonamide]
433 nM | COc1cc(N2CCC3(CCN(C(=O)c4ccncc4)CC3)C2=O)ccc1-c1cn[nH]c1 [Example 56, 2-[3-methoxy-4-(1H-pyrazol-4-yl)phenyl]-8-(pyridine-4-carbonyl)-2,8-diazaspiro[4.5]decan-1-one]
118 nM | COc1cc(N2CCC3(CCN(C(=O)c4cccc(Oc5ccccc5)c4)CC3)C2=O)ccc1-c1cn[nH]c1 [Example 57, 2-[3-methoxy-4-(1H-pyrazol-4-yl)phenyl]-8-(3-phenoxybenzoyl)-2,8-diazaspiro[4.5]decan-1-one]
144 nM | COc1cc(N2CCC3(CCN(C(=O)c4cccc(C(F)(F)F)c4)CC3)C2=O)ccc1-c1cn[nH]c1 [Example 58, 2-[3-methoxy-4-(1H-pyrazol-4-yl)phenyl]-8-[3-(trifluoromethyl)benzoyl]-2,8-diazaspiro[4.5]decan-1-one]
54 nM | COc1cc(N2CCC3(CCN(C(=O)c4ccc(Oc5ccccc5)cc4)CC3)C2=O)ccc1-c1cn[nH]c1 [Example 60, 2-[3-methoxy-4-(1H-pyrazol-4-yl)phenyl]-8-(4-phenoxybenzoyl)-2,8-diazapsiro[4.5]decan-1-one]
18 nM | COc1cc(N2CCC3(CCN(C(=O)c4ccc(-c5ccccc5)cc4)CC3)C2=O)ccc1-c1cn[nH]c1 [Example 61, 8-{[1,1′-biphenyl]-4-carbonyl}-2-[3-methoxy-4-(1H-pyrazol-4-yl)phenyl]-2,8-diazaspiro[4.5]decan-1-one]
1430 nM | COc1cc(N2CCC3(CCN(C(=O)c4cccn4C)CC3)C2=O)ccc1-c1cn[nH]c1 [Example 62, 2-[3-methoxy-4-(1H-pyrazol-4-yl)phenyl]-8-(1-methyl-1H-pyrrole-2 carbonyl)-2,8-diazaspiro[4.5]decan-1-one]

From patent US11192891B2, “Diazaspiro ROCK inhibitors” (BRISTOL-MYERS SQUIBB COMPANY, priority 2017, dated 2021)
